Test results as given in PubChem BioAssay (NCI).
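Abbreviation: GI50, concentration required for 50% inhibition of growth. TGI: total growth inhibition.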

Key:
Assay in all cases: inhibition of tumour cell growth, NCI panel, 384-well format
786-0 renal = test system: 786-0 renal
A498 renal = test system: A498 renal
A549 NSCLC = test system: A549 NSCLC
ACHN renal = test system: ACHN renal
BT-549 breast = test system: BT-549 breast
CAKI-1 renal = test system: CAKI-1 renal
CCRF-CEM leukemia = test system: CCRF-CEM leukemia
EKVX NSCLC = test system: EKVX NSCLC
HCT-116 colon = test system: HCT-116 colon
HCT-15 colon = test system: HCT-15 colon
HL-60(TB) leukemia = test system: HL-60(TB) leukemia
HOP-62 NSCLC = test system: HOP-62 NSCLC
HOP-92 NSCLC = test system: HOP-92 NSCLC
HS 578T breast = test system: HS 578T breast
HT29 colon = test system: HT29 colon
IGROV1 ovarian = test system: IGROV1 ovarian
K-562 leukemia = test system: K-562 leukemia
KM12 colon = test system: KM12 colon
LOX IMVI melanoma = test system: LOX IMVI melanoma
M14 melanoma = test system: M14 melanoma
MALME-3M melanoma = test system: MALME-3M melanoma
MCF7 breast = test system: MCF7 breast
MDA-MB-231 breast = test system: MDA-MB-231 breast
MDA-MB-435 melanoma = test system: MDA-MB-435 melanoma
MDA-MB-468 breast = test system: MDA-MB-468 breast
MOLT-4 leukemia = test system: MOLT-4 leukemia
NCI-H226 lung = test system: NCI-H226 lung
NCI-H23 lung = test system: NCI-H23 lung
NCI-H322M lung = test system: NCI-H322M lung
NCI-H522 lung = test system: NCI-H522 lung
NCI/ADR-RES ovarian = test system: NCI/ADR-RES ovarian
OVCAR-3 ovarian = test system: OVCAR-3 ovarian
OVCAR-5 ovarian = test system: OVCAR-5 ovarian
OVCAR-8 ovarian = test system: OVCAR-8 ovarian
PC-3 prostate = test system: PC-3 prostate
RPMI-8226 leukemia = test system: RPMI-8226 leukemia
RXF 393 renal = test system: RXF 393 renal
SF-268 CNS = test system: SF-268 CNS
SF-295 CNS = test system: SF-295 CNS
SF-539 CNS = test system: SF-539 CNS
SK-MEL-28 melanoma = test system: SK-MEL-28 melanoma
SK-OV-3 ovarian = test system: SK-OV-3 ovarian
SN12C renal = test system: SN12C renal
SNB-19 CNS = test system: SNB-19 CNS
SNB-75 CNS = test system: SNB-75 CNS
SW-620 colon = test system: SW-620 colon
T-47D breast = test system: T-47D breast
TK-10 renal = test system: TK-10 renal
U251 glioblastoma = test system: U251 glioblastoma
UACC-257 melanoma = test system: UACC-257 melanoma
UACC-62 melanoma = test system: UACC-62 melanoma
UO-31 renal = test system: UO-31 renal

Which GI50 ([…]-0 renal) does the source give for `S=c1nc[nH]c2nc[nH]c12` here?
The GI50 was 468 nM.

What about the TGI (786-0 renal) of the same compound?
Its TGI is 2200 nM.

And the GI50 (A498 renal)?
The GI50 was 10600 nM.

What about the TGI (A498 renal) of the same compound?
The TGI was 96700 nM.

What about the GI50 (A549 NSCLC) of the same compound?
The GI50 was 5600 nM.

And the TGI (A549 NSCLC)?
Its TGI is 57100 nM.

And the GI50 (ACHN renal)?
The GI50 was 1830 nM.

What about the TGI (ACHN renal) of the same compound?
Its TGI is 6910 nM.

What about the GI50 (BT-549 breast) of the same compound?
Its GI50 is 482 nM.

And the TGI (BT-549 breast)?
The TGI was 2300 nM.

And the GI50 (CAKI-1 renal)?
The GI50 was 1570 nM.

What about the TGI (CAKI-1 renal) of the same compound?
The TGI was 5450 nM.

What about the GI50 (CCRF-CEM leukemia) of the same compound?
Its GI50 is 1420 nM.

And the TGI (CCRF-CEM leukemia)?
The TGI was 3000 nM.

And the GI50 (EKVX NSCLC)?
The GI50 was 53900 nM.

What about the GI50 (HCT-116 colon) of the same compound?
Its GI50 is 1800 nM.

And the GI50 (HCT-15 colon)?
Its GI50 is 4730 nM.

What about the GI50 (HL-60(TB) leukemia) of the same compound?
Its GI50 is 357 nM.

What about the TGI (HL-60(TB) leukemia) of the same compound?
The TGI was 1840 nM.

And the GI50 (HOP-62 NSCLC)?
Its GI50 is 219 nM.

What about the TGI (HOP-62 NSCLC) of the same compound?
The TGI was 592 nM.

And the GI50 (HOP-92 NSCLC)?
Its GI50 is 301 nM.

What about the GI50 (HS 578T breast) of the same compound?
Its GI50 is 473 nM.

And the TGI (HS 578T breast)?
The TGI was 3380 nM.

And the GI50 (HT29 colon)?
The GI50 was 1890 nM.

What about the GI50 (IGROV1 ovarian) of the same compound?
The GI50 was 3630 nM.

What about the GI50 (K-562 leukemia) of the same compound?
The GI50 was 334 nM.

And the TGI (K-562 leukemia)?
The TGI was 950 nM.

And the GI50 (KM12 colon)?
The GI50 was 1330 nM.

What about the GI50 (LOX IMVI melanoma) of the same compound?
The GI50 was 206 nM.

What about the TGI (LOX IMVI melanoma) of the same compound?
Its TGI is 481 nM.

What about the GI50 (M14 melanoma) of the same compound?
Its GI50 is 306 nM.

What about the GI50 (MALME-3M melanoma) of the same compound?
Its GI50 is 494 nM.

What about the TGI (MALME-3M melanoma) of the same compound?
Its TGI is 3140 nM.

What about the GI50 (MCF7 breast) of the same compound?
The GI50 was 272 nM.

What about the TGI (MCF7 breast) of the same compound?
The TGI was 10200 nM.

What about the GI50 (MDA-MB-231 breast) of the same compound?
The GI50 was 395 nM.

What about the TGI (MDA-MB-231 breast) of the same compound?
The TGI was 1860 nM.

And the GI50 (MDA-MB-435 melanoma)?
Its GI50 is 729 nM.

What about the GI50 (MDA-MB-468 breast) of the same compound?
Its GI50 is 150 nM.

What about the TGI (MDA-MB-468 breast) of the same compound?
Its TGI is 416 nM.

And the GI50 (MOLT-4 leukemia)?
The GI50 was 151 nM.

And the TGI (MOLT-4 leukemia)?
The TGI was 318 nM.

And the GI50 (NCI-H226 lung)?
The GI50 was 294 nM.

And the TGI (NCI-H226 lung)?
The TGI was 11900 nM.

What about the GI50 (NCI-H23 lung) of the same compound?
The GI50 was 576 nM.

And the TGI (NCI-H23 lung)?
The TGI was 5860 nM.

And the GI50 (NCI-H322M lung)?
The GI50 was 1060 nM.

And the TGI (NCI-H322M lung)?
Its TGI is 7280 nM.

What about the GI50 (NCI-H522 lung) of the same compound?
Its GI50 is 299 nM.

And the TGI (NCI-H522 lung)?
The TGI was 1770 nM.

What about the GI50 (NCI/ADR-RES ovarian) of the same compound?
Its GI50 is 2060 nM.

And the TGI (NCI/ADR-RES ovarian)?
The TGI was 8770 nM.

And the GI50 (OVCAR-3 ovarian)?
The GI50 was 168 nM.

And the TGI (OVCAR-3 ovarian)?
Its TGI is 389 nM.

And the GI50 (OVCAR-5 ovarian)?
Its GI50 is 1250 nM.

What about the TGI (OVCAR-5 ovarian) of the same compound?
Its TGI is 2800 nM.

What about the GI50 (OVCAR-8 ovarian) of the same compound?
Its GI50 is 1480 nM.

And the TGI (OVCAR-8 ovarian)?
The TGI was 5930 nM.

What about the GI50 (PC-3 prostate) of the same compound?
The GI50 was 2400 nM.

What about the GI50 (RPMI-8226 leukemia) of the same compound?
Its GI50 is 289 nM.

What about the TGI (RPMI-8226 leukemia) of the same compound?
Its TGI is 1280 nM.

What about the GI50 (RXF 393 renal) of the same compound?
Its GI50 is 241 nM.

What about the TGI (RXF 393 renal) of the same compound?
The TGI was 1160 nM.

And the GI50 (SF-268 CNS)?
The GI50 was 1110 nM.

What about the TGI (SF-268 CNS) of the same compound?
The TGI was 2800 nM.

And the GI50 (SF-295 CNS)?
Its GI50 is 1130 nM.

What about the TGI (SF-295 CNS) of the same compound?
The TGI was 3710 nM.

What about the GI50 (SF-539 CNS) of the same compound?
Its GI50 is 481 nM.

And the TGI (SF-539 CNS)?
The TGI was 2910 nM.

And the GI50 (SK-MEL-28 melanoma)?
Its GI50 is 15400 nM.

What about the TGI (SK-MEL-28 melanoma) of the same compound?
The TGI was 99600 nM.

What about the GI50 (SK-OV-3 ovarian) of the same compound?
The GI50 was 569 nM.

And the GI50 (SN12C renal)?
Its GI50 is 2430 nM.

And the TGI (SN12C renal)?
The TGI was 19400 nM.

And the GI50 (SNB-19 CNS)?
Its GI50 is 11300 nM.

And the TGI (SNB-19 CNS)?
The TGI was 37000 nM.

What about the GI50 (SNB-75 CNS) of the same compound?
Its GI50 is 217 nM.

What about the TGI (SNB-75 CNS) of the same compound?
Its TGI is 5130 nM.

What about the GI50 (SW-620 colon) of the same compound?
Its GI50 is 4150 nM.

What about the GI50 (T-47D breast) of the same compound?
Its GI50 is 423 nM.

And the GI50 (TK-10 renal)?
Its GI50 is 437 nM.

What about the TGI (TK-10 renal) of the same compound?
The TGI was 2190 nM.

What about the GI50 (U251 glioblastoma) of the same compound?
The GI50 was 3300 nM.

What about the GI50 (UACC-257 melanoma) of the same compound?
The GI50 was 2040 nM.

And the GI50 (UACC-62 melanoma)?
The GI50 was 876 nM.

And the GI50 (UO-31 renal)?
Its GI50 is 1860 nM.

What about the TGI (UO-31 renal) of the same compound?
Its TGI is 5230 nM.
